How the values were obtained:
Experiment in all cases: relative viability (nuclei count vs DMSO), 5 days (fraction); higher = more cells survive
QS11 + Lapatinib = compound: C1CC2=C(C1)C=C(C=C2)OC3=NC(=C4C(=N3)N(C=N4)CC5=CC=C(C=C5)C6=CC=CC=C6)N[C@@H](CC7=CC=CC=C7)CO [QS11] + CS(=O)(=O)CCNCc1ccc(-c2ccc3ncnc(Nc4ccc(OCc5cccc(F)c5)c(Cl)c4)c3c2)o1 [Lapatinib] (partner 2 µM)
Summary of the method: (§1)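 Relative viability is defined as nuclei in treated wells over nuclei in vehicle wells. Duplicate plates were run and medians reported. Lung cancer cell lines in 1536-well plates were dosed by pin tool one day after seeding, with one drug or with a fixed anchor-drug dose plus five library-drug doses (not always all listed) in √10 steps, and nuclei were counted after 5 days.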

Darinaparsin + Dasatinib = compound: C[As](C)SC[C@H](NC(=O)CC[C@H](N)C(=O)O)C(=O)NCC(=O)O [Darinaparsin] + Cc1nc(Nc2ncc(C(=O)Nc3c(C)cccc3Cl)s2)cc(N2CCN(CCO)CC2)n1 [Dasatinib] (partner 0.075 µM)
Summary of the method: as §1

QS11 + Navitoclax = compound: C1CC2=C(C1)C=C(C=C2)OC3=NC(=C4C(=N3)N(C=N4)CC5=CC=C(C=C5)C6=CC=CC=C6)N[C@@H](CC7=CC=CC=C7)CO [QS11] + CC1(C)CCC(c2ccc(Cl)cc2)=C(CN2CCN(c3ccc(C(=O)NS(=O)(=O)c4ccc(N[C@H](CCN5CCOCC5)CSc5ccccc5)c(S(=O)(=O)C(F)(F)F)c4)cc3)CC2)C1 [Navitoclax] (partner 0.5 µM)
Summary of the method: as §1

AZ628 + Vorinostat = compound: CC1=C(C=C(C=C1)NC(=O)C2=CC(=CC=C2)C(C)(C)C#N)NC3=CC4=C(C=C3)N=CN(C4=O)C [AZ628] + O=C(CCCCCCC(=O)Nc1ccccc1)NO [Vorinostat] (partner 1 µM)
Summary of the method: as §1

Row | Cell Line | relative viability (QS11 + Lapatinib; first compound 0.08 µM) | relative viability (QS11 + Lapatinib; first compound 0.253 µM) | relative viability (QS11 + Lapatinib; first compound 0.8 µM) | relative viability (QS11 + Lapatinib; first compound 2.53 µM) | relative viability (QS11 + Lapatinib; first compound 8 µM) | relative viability (Darinaparsin + Dasatinib; first compound 0.08 µM) | relative viability (Darinaparsin + Dasatinib; first compound 0.8 µM) | relative viability (Darinaparsin + Dasatinib; first compound 2.53 µM) | relative viability (Darinaparsin + Dasatinib; first compound 8 µM) | relative viability (QS11 + Navitoclax; first compound 0.08 µM) | relative viability (QS11 + Navitoclax; first compound 0.253 µM) | relative viability (QS11 + Navitoclax; first compound 0.8 µM) | relative viability (QS11 + Navitoclax; first compound 2.53 µM) | relative viability (QS11 + Navitoclax; first compound 8 µM) | relative viability (AZ628 + Vorinostat; first compound 0.08 µM) | relative viability (AZ628 + Vorinostat; first compound 0.253 µM) | relative viability (AZ628 + Vorinostat; first compound 0.8 µM) | relative viability (AZ628 + Vorinostat; first compound 2.53 µM) | relative viability (AZ628 + Vorinostat; first compound 8 µM)
1 | NCI-H23 | 1.01 | 0.988 | 0.871 | 0.885 | 1.1 | 0.909 | 0.836 | 0.714 | 0.843 | 0.818 | 0.863 | 0.872 | 0.75 | 0.692 | 0.709 | 0.555 | 0.524 | 0.404 | 0.333
2 | NCI-H322M | 0.573 | 0.642 | 0.559 | 0.576 | 0.628 | 0.269 | 0.233 | 0.251 | 0.257 | 1.21 | 1.21 | 1.22 | 1.35 | 1.26 | 1.03 | 0.856 | 0.989 | 0.937 | 0.816
3 | NCI-H460 | 1.4 | 1.14 | 0.567 | 0.686 | 0.24 | 0.632 | 0.478 | 0.473 | 0.721 | 1.1 | 1.25 | 0.882 | 1.06 | 0.308 | 0.728 | 0.715 | 0.644 | 0.641 | 0.24
4 | NCI-H520 |  | 1.05 | 0.863 | 0.99 | 1.13 | 0.215 | 0.237 | 0.189 | 0.212 |  | 1.06 | 1.23 | 1.22 | 1.14 | 0.684 | 0.628 | 0.702 | 0.81 | 0.716
5 | NCI-H596 | 1 | 1.02 | 1.02 | 1.03 | 1.05 | 0.624 | 0.625 | 0.632 | 0.566 | 0.94 | 0.961 | 1.07 | 0.969 | 1.24 | 0.559 | 0.594 | 0.69 | 0.686 | 0.682
6 | NCI-H647 | 0.939 | 1.12 | 0.916 | 1.1 | 0.711 | 0.21 | 0.205 | 0.149 | 0.233 | 1.28 | 1.12 | 1.07 | 1.13 | 1.1 | 0.54 | 0.845 | 0.524 | 0.833 | 0.488
7 | NCI-H727 | 1 | 0.714 | 0.892 | 0.665 | 0.639 | 0.401 | 0.356 | 0.414 | 0.416 | 0.389 | 0.346 | 0.47 | 0.301 | 0.328 | 1.25 |  |  | 0.891 | 0.352
8 | NCI-H838 | 0.944 | 0.918 | 0.68 | 0.899 | 0.904 | 0.301 | 0.286 | 0.271 | 0.338 | 1.11 | 1.1 | 0.755 | 1.2 | 1.02 | 0.753 | 0.72 | 0.677 | 0.722 | 0.718
9 | NCI-H1355 | 1.08 | 0.792 | 0.688 | 0.997 | 1.07 | 0.717 | 0.69 | 0.596 | 0.689 | 0.876 | 0.869 | 0.791 | 1.03 | 0.881 | 0.69 | 0.623 | 0.581 | 0.598 | 0.418
10 | NCI-H1395 |  | 0.98 | 0.992 | 1.14 | 0.977 | 0.438 | 0.377 | 0.427 | 0.405 |  | 1.09 | 1.31 | 1.45 | 1.02 | 0.936 | 0.61 | 0.665 | 0.62 | 0.607
11 | NCI-H1437 | 0.832 | 0.846 | 0.581 | 0.704 | 0.598 | 0.482 | 0.375 | 0.286 | 0.48 | 1.12 | 1.22 | 0.718 | 0.943 | 0.936 | 0.834 | 0.765 | 0.752 | 0.829 | 0.776
12 | NCI-H1650 | 0.746 | 0.643 | 0.673 | 0.731 | 0.708 | 0.397 | 0.36 | 0.343 | 0.297 | 1.18 | 1.12 | 1.07 | 1.1 | 1.2 | 0.733 | 0.763 | 0.582 | 0.505 | 0.562
13 | NCI-H1651 | 0.941 | 0.872 | 0.828 | 1.01 | 0.76 | 0.51 | 0.476 | 0.365 | 0.416 | 1.13 | 0.998 | 0.936 | 0.98 | 0.839 | 0.584 | 0.491 | 0.573 | 0.559 | 0.561
14 | NCI-H1666 | 0.607 | 0.398 | 0.542 | 0.578 | 0.42 | 0.817 | 0.814 | 0.799 | 0.832 | 1.04 | 0.868 | 0.932 | 0.55 | 0.472 | 1.07 | 0.953 | 0.995 | 0.764 | 0.916
15 | NCI-H1734 | 1.07 | 0.968 | 0.921 | 1.01 | 0.898 | 0.461 | 0.441 | 0.44 | 0.49 | 0.803 | 0.96 | 0.751 | 0.568 | 0.663 | 0.923 | 0.773 | 0.761 | 0.772 | 0.463
16 | NCI-H1755 | 1.12 | 1.02 | 0.608 | 0.953 | 0.833 | 0.438 | 0.448 | 0.346 | 0.468 | 1.03 | 0.994 | 0.531 | 0.898 | 0.834 | 0.78 | 0.779 | 0.84 | 0.755 | 0.679
17 | NCI-H1793 | 0.807 | 0.659 | 0.802 | 0.925 | 1.1 | 0.421 | 0.366 | 0.348 | 0.424 | 0.393 | 0.482 | 0.38 | 0.436 | 0.404 | 0.969 | 0.632 | 0.835 | 0.602 | 0.484
18 | NCI-H1915 | 1.04 | 1.02 |  | 1.02 | 0.802 | 0.329 | 0.32 | 0.317 | 0.323 | 0.816 | 0.805 |  | 0.865 | 0.868 | 0.549 | 0.606 | 0.537 | 0.461 | 0.462
19 | NCI-H1944 | 0.857 | 0.704 |  | 0.89 | 0.598 | 0.203 | 0.2 | 0.208 | 0.192 | 1.06 | 1.1 |  | 1.07 | 0.973 | 0.613 | 0.547 | 0.508 | 0.468 | 0.444
20 | NCI-H1975 | 0.912 | 0.805 | 0.965 | 1.03 | 1.18 | 0.42 | 0.404 | 0.388 | 0.386 | 1.09 | 1.2 | 1.02 | 1.59 | 1.26 | 0.62 | 0.668 | 0.679 | 0.658 | 0.42
21 | NCI-H1993 | 0.823 | 0.962 | 0.601 | 0.751 | 0.882 | 0.68 | 0.532 | 0.535 | 0.575 | 0.833 | 0.761 | 0.997 | 0.946 | 0.893 | 0.751 | 0.774 | 0.812 | 0.62 | 0.547
22 | NCI-H2009 | 0.983 | 0.884 | 0.634 | 0.855 | 0.728 | 0.307 | 0.32 | 0.266 | 0.233 | 1.13 | 1.19 | 0.972 | 1.02 | 0.981 | 0.595 | 0.783 | 0.568 | 0.612 | 0.405
23 | NCI-H2023 | 0.809 | 0.797 | 0.747 | 0.773 | 0.706 | 0.724 | 0.656 | 0.352 | 0.729 | 1.02 | 1.02 | 0.925 | 1.16 | 1.12 | 0.825 | 0.61 | 0.542 | 0.636 | 0.405
24 | NCI-H2085 | 0.714 | 0.716 | 0.713 | 0.861 | 0.778 | 0.238 | 0.25 | 0.235 | 0.223 | 1.18 | 1.17 | 1.08 | 1.29 | 1.41 | 0.845 | 0.788 | 0.891 | 0.826 | 0.736
25 | NCI-H2087 | 0.996 | 1.09 | 0.728 | 0.651 | 0.688 | 1.11 | 0.906 | 0.793 | 1.52 | 1.05 | 1.02 | 0.733 | 0.931 | 0.785 | 1.02 | 0.723 | 0.743 | 0.527 | 0.148
26 | NCI-H2126 | 0.792 | 0.698 | 0.727 | 0.802 | 0.717 | 0.56 | 0.616 | 0.556 | 0.681 | 0.867 | 0.796 | 0.67 | 0.823 | 0.62 | 0.862 | 0.786 | 0.642 | 0.729 | 0.703
27 | NCI-H2170 | 0.276 | 0.262 | 0.246 | 0.281 | 0.316 | 0.65 | 0.612 | 0.481 | 0.647 | 0.575 | 0.584 | 0.572 | 0.605 | 0.695 | 0.804 | 0.833 | 0.786 | 0.837 | 0.905
28 | NCI-H2228 | 1.12 | 0.826 | 1.17 | 1.54 | 1.09 | 0.71 | 0.606 | 0.447 | 0.686 | 0.852 | 1.1 | 0.483 | 0.756 | 1.29 | 0.697 | 0.684 | 0.644 | 0.507 | 0.432
